Calls of active or inactive are those of the source. The rule behind the calls is not given here.
Experiments:
BMDM [1] = test: Cytotoxicity against C57/BL6 mouse bone marrow macrophage cells assessed as reduction in cell viability at 10 uM incubated for 3 days by CCK8 assay; type: toxicity, cell-based; conditions: 72 h, time 3 day
[2] = Anti-osteoporosis activity C57/BL6 mouse bone marrow macrophage cells assessed as inhibition of RANKL-induced osteoclastogenesis at 1 uM measured after 5 to 6 days in presence of M-CSF and RNKL by TRAP staining microscopic analysis; type: functional, BMDM; set-up: scale not given: the % may be the effect or the level left; conditions: time 5-6 day
[3] = Anti-osteoporosis activity C57/BL6 mouse bone marrow macrophage cells assessed as inhibition of RANKL-induced osteoclastogenesis at 0.1 uM measured after 5 to 6 days in presence of M-CSF and RNKL by TRAP staining microscopic analysis; type: functional, BMDM; set-up: scale not given: the % may be the effect or the level left; conditions: time 5-6 day
[4] = AUC(0 to t) in OVX-induced C57/BL6 mouse model at 5 mg/kg, po; type: ADME, organism-based; set-up: dose 5 mg/kg, route po; conditions: female, in vivo
[5] = Half life in OVX-induced C57/BL6 mouse model at 3 mg/kg, iv; type: ADME, organism-based; conditions: female, in vivo
[6] = Clearance in OVX-induced C57/BL6 mouse model at 3 mg/kg, iv; type: ADME, organism-based; conditions: female, in vivo
[7] = AUC(0 to t) in OVX-induced C57/BL6 mouse model at 3 mg/kg, iv; type: ADME, organism-based; set-up: dose 3 mg/kg, route iv; conditions: female, in vivo
[8] = Cmax in OVX-induced C57/BL6 mouse model at 5 mg/kg, po; type: ADME, organism-based; set-up: dose 5 mg/kg, route po; conditions: female, in vivo
[9] = Oral bioavailability in OVX-induced C57/BL6 mouse model; type: ADME, organism-based; conditions: female, in vivo
[10] = Half life in OVX-induced C57/BL6 mouse model at 5 mg/kg, po; type: ADME, organism-based; conditions: female, in vivo
[11] = Anti-osteoporosis activity C57/BL6 mouse bone marrow macrophage cells assessed as inhibition of RANKL-induced osteoclastogenesis measured after 5 to 6 days in presence of M-CSF by DAPI staining analysis; type: functional, cell-based; conditions: bmdm
Mus musculus [12] = test: Anti-osteoporosis activity in OVX-induced C57/BL6 mouse model assessed as increase in bone mineral density by measuring recovery at 60 mg/kg, po once per day for 28 days by microCT imaging analysis; type: functional; conditions: time 28 day
Mus musculus [13] = test: Anti-osteoporosis activity in ligature-induced periodontal BALB/c mouse model assessed as increase in vertical bone at 20 mg/kg, ip measured for 4 weeks by microCT imaging analysis; type: functional
BMDM [14] = test: Anti-osteoporosis activity C57/BL6 mouse bone marrow macrophage cells assessed as inhibition of RANKL-induced F-actin levels upto 5 uM measured after 5 to 6 days in presence of M-CSF by DAPI staining analysis; type: functional, cell-based; conditions: time 5-6 day
Mus musculus [15] = test: Anti-osteoporosis activity in ligature-induced periodontal BALB/c mouse model assessed as increase in bone volume at 20 mg/kg, ip measured for 4 weeks by microCT imaging analysis; type: functional
BMDM [16] = test: Anti-osteoporosis activity C57/BL6 mouse bone marrow macrophage cells assessed as inhibition of RANKL-induced F-actin size upto 5 uM measured after 5 to 6 days in presence of M-CSF by DAPI staining analysis; type: functional, cell-based; conditions: time 5-6 day
Mus musculus [17] = test: Anti-osteoporosis activity in ligature-induced periodontal BALB/c mouse model assessed as increase in alveolar bone mass at 20 mg/kg, ip measured for 4 weeks by microCT imaging analysis; type: functional
BMDM [18] = test: Inhibition of RANKL-induced c-FOS protein expression in C57/BL6 mouse bone marrow macrophage cells upto 10 uM measured for 3 days in presence of M-CSF and RANKL by Western blot analysis; type: functional, cell-based; conditions: time 3.0 day, DDE = dose-dependent effect
BMDM [19] = test: Inhibition of RANKL-induced NFATC1 protein expression in C57/BL6 mouse bone marrow macrophage cells upto 10 uM measured for 3 days in presence of M-CSF and RANKL by Western blot analysis; type: functional, cell-based; conditions: time 3.0 day, DDE = dose-dependent effect
BMDM [20] = test: Anti-osteoporosis activity C57/BL6 mouse bone marrow macrophage cells assessed as inhibition of RANKL-induced osteoclastogenesis and measured after 5 to 6 days in presence of M-CSF by TRAP staining based assay; type: functional, cell-based; conditions: dose 0.1-5 µM, time 5-6 day, DDE = dose-dependent effect
BMDM [21] = test: Inhibition of RANKL-induced c-fos in mRNA expression in C57/BL6 mouse bone marrow macrophage cells upto 5 uM measured after 3 days by qRT-PCR analysis; type: functional, cell-based; conditions: time 3.0 day
[22] = target: T1, Tumor necrosis factor ligand superfamily member 11 (Homo sapiens, UniProt O14788); test: Binding affinity to human RANKL assessed as dissociation constant by surface plasmon resonance method
T1 sequence (O14788 whole entry): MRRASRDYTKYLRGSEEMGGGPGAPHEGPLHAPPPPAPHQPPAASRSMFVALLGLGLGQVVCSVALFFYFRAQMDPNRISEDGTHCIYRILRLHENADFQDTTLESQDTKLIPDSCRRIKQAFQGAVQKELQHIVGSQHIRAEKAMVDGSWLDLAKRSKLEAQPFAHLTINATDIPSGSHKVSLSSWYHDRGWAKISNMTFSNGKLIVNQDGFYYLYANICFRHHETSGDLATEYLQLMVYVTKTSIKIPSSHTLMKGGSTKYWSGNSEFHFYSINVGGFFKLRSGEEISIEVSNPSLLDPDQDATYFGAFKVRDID

Mus musculus [23] = test: Anti-osteoporosis activity in ligature-induced periodontal BALB/c mouse model assessed as decrease in bone loss at 20 mg/kg, ip measured for 4 weeks by microCT imaging analysis; type: functional, organism-based
BMDM [24] = test: Inhibition of RANKL-induced TRAP in mRNA expression in C57/BL6 mouse bone marrow macrophage cells upto 5 uM measured after 3 days by qRT-PCR analysis; type: functional, cell-based; conditions: time 3.0 day
BMDM [25] = test: Inhibition of RANKL-induced NFATc1 in mRNA expression in C57/BL6 mouse bone marrow macrophage cells upto 5 uM measured after 3 days by qRT-PCR analysis; type: functional, cell-based; conditions: time 3.0 day
BMDM [26] = test: Inhibition of RANKL-induced Cathepsin K in mRNA expression in C57/BL6 mouse bone marrow macrophage cells upto 5 uM measured after 3 days by qRT-PCR analysis; type: functional, cell-based; conditions: time 3.0 day
BMDM [27] = test: Cytotoxicity against C57/BL6 mouse bone marrow macrophage cells at 5 uM measured after 3 days in presence of M-CSF by CCK-8 assay; type: toxicity, cell-based; conditions: 72 h, time 3 day

## Cc1cccc(C)c1NC(=O)c1cc2c([nH]c3ccccc32)c(CCc2ccc(C(=O)O)cc2)n1
BMDM [1]
  Cell viability: > 100%
[2]
  Activity: 85.9%
[3]
  Activity: 37.6%

## Cc1cccc(C)c1NC(=O)c1cc2c([nH]c3ccccc32)c(CCC2CCCCC2)n1
BMDM [1]
  Cell viability: > 100%
[2]
  Activity: 52.8%
[3]
  Activity: 9.1%

## Cc1cccc(C)c1NC(=O)C(Cc1c[nH]c2ccccc12)NCCCc1ccccc1 (stereo not drawn)
[4]
  AUC(0-t): 38.8 ng·h/mL
[5]
  half-life: 1.2 h
BMDM [1]
  Cell viability: > 100%
[2]
  Activity: 32%
[6]
  clearance: 51 mL/min/kg
[7]
  AUC(0-t): 984 ng·h/mL
[8]
  Cmax: 10 ng/mL
[9]
  bioavailability: 2.4%
[10]
  half-life: 0.9 h

## Cc1cccc(C)c1NC(=O)c1cc2c([nH]c3ccccc32)c(CCc2ccc(C#N)cc2)n1
BMDM [1]
  Cell viability: > 100%
[2]
  Activity: 79.5%
[3]
  Activity: 16.5%

## O=C(Nc1ncc[nH]1)c1cc2c([nH]c3ccccc32)c(CCc2ccccc2)n1
BMDM [1]
  Cell viability: > 100%
[2]
  Activity: 78.9%
[3]
  Activity: 10.7%

## COc1ccccc1CCc1nc(C(=O)Nc2c(C)cccc2C)cc2c1[nH]c1ccccc12
BMDM [1]
  Cell viability: > 100%
[2]
  Activity: 83%
[3]
  Activity: 33.6%

## Cc1cccc(C)c1NC(=O)c1cc2c([nH]c3ccccc32)c(CCc2ccccc2)n1
[4]
  AUC(0-t): 223 ng·h/mL
[5]
  half-life: 5.1 h
[11]
  IC50: 520 nM
BMDM [1]
  Cell viability: > 100%
Mus musculus [12]
  Activity: 23.4%
Mus musculus [13]
  Activity: 67%
BMDM [14]
  Activity: Active
Mus musculus [15]
  Activity: 51.9%
BMDM [16]
  Activity: Active
[2]
  Activity: 89.3%
Mus musculus [17]
  Activity: 60.7%
BMDM [18]
  inhibition: Dde
BMDM [19]
  inhibition: Dde
[6]
  clearance: 18.6 mL/min/kg
[3]
  Activity: 45.9%
[7]
  AUC(0-t): 2710 ng·h/mL
BMDM [20]
  Activity: Dde
BMDM [21]
  inhibition: Active
[22]
  Kd: 5030 nM
Mus musculus [23]
  Activity: Active
[8]
  Cmax: 48.1 ng/mL
[9]
  bioavailability: 4.9%
[10]
  half-life: 2 h
BMDM [24]
  inhibition: Active
BMDM [25]
  inhibition: Active
BMDM [26]
  inhibition: Active
BMDM [27]
  Activity: Non-Toxic

## O=C(Nc1ccncc1)c1cc2c([nH]c3ccccc32)c(CCc2ccccc2)n1
BMDM [1]
  Cell viability: > 100%
[2]
  Activity: 56.6%
[3]
  Activity: 18.4%

## Cc1cccc(C)c1NC(=O)c1cc2c([nH]c3ccccc32)c(CCc2ccc(F)cc2)n1
BMDM [1]
  Cell viability: > 100%
[2]
  Activity: 65.2%
[3]
  Activity: 28.2%

## Cc1cc2occ(CN(C)CCN(C)Cc3cn(-c4cccc(C(F)(F)F)c4)c4ccccc34)c(=O)c2cc1C
BMDM [1]
  Cell viability: 3.8%
[2]
  Activity: 56.1%
[3]
  Activity: 18.4%

## Cc1cccc(C)c1NC(=O)c1cc2c([nH]c3ccccc32)c(CCc2ccncc2)n1
BMDM [1]
  Cell viability: > 100%
[2]
  Activity: 79.1%
[3]
  Activity: 29.8%

## Cc1cccc(C)c1NC(=O)c1cc2c([nH]c3ccccc32)c(CCc2ccc(C(F)(F)F)cc2)n1
BMDM [1]
  Cell viability: > 100%
[2]
  Activity: 72.5%
[3]
  Activity: 19.5%

## Cc1cccc(C)c1NC(=O)c1cc2c([nH]c3ccccc32)c(CCc2ccc(N(C)C)cc2)n1
BMDM [1]
  Cell viability: > 100%
[2]
  Activity: 54.7%
[3]
  Activity: 36.7%

## COC(=O)c1ccc(CCc2nc(C(=O)Nc3c(C)cccc3C)cc3c2[nH]c2ccccc23)cc1
BMDM [1]
  Cell viability: 99.6%
[2]
  Activity: 77.6%
[3]
  Activity: 28.5%

## Cc1ccc(CCc2nc(C(=O)Nc3c(C)cccc3C)cc3c2[nH]c2ccccc23)cc1
BMDM [1]
  Cell viability: > 100%
[2]
  Activity: 77.6%
[3]
  Activity: 16.2%

## Cc1cccc(C)c1NC(=O)c1cc2c([nH]c3ccccc32)c(CCc2ccc(P(C)(C)=O)cc2)n1
BMDM [1]
  Cell viability: > 100%
[2]
  Activity: 81.6%
[3]
  Activity: 32.6%
